Consider one substance from patent publication US7964221B2, “Composition and methods of use of an immunomodulator” (priority 2006, dated 2011).

Test [1] in a line: 32-week three-arm HIV trial: body weight. Format: in vivo, human. An excerpt: (§1) All participants were antiretroviral drug naive.
(§2) Laboratory abnormalities were graded.

The subject of test [2] is CD4 cells. The experiment in a line: 32-week three-arm trial in HIV-infected individuals: CD4 cell counts. Format: in vivo, human. As to conditions: for Change in CD4 cell counts from baseline: OT analysis.
Source text: as §1, §2

In the case of “zidovudine (AZT), lamividine (3TC), and efavirenz (EFV) [AZT/3TC/EFV]”, the “Body weight After” value in test [1] (after therapy) came to 65.6. Further, the “Mean values for baseline body weight” value in test [1] (baseline, mean ± SD) came out at 64.2 ± 8.9 kg. Also, the “Body weight Before” value in test [1] (before therapy) was 64.2. In addition, in test [1] (end of study), the “Mean weight values at the end of study” value was 65.6 ± 7.3 kg. In test [1] (week 32), this substance registered an Average weight gain of 1.4 kg. The “Change in CD4 cell counts from baseline” value was “+122 cells/mm^3” in test [2] (12 weeks of treatment), “+108 cells/mm^3” in test [2] (20 weeks) and “+102 cells/mm^3” in test [2] (32 weeks). Besides, in test [2] (after therapy), the “CD4 counts After” value was found to be 463. In addition, in test [2] (before therapy (baseline)), the “CD4 counts Before” value is 361.
